Measured values reported in PubChem BioAssay (NCI).
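Test compounds were applied to cells in 96-well plates for 48 hours at 5 doses. GI50 = concentration required for 50% inhibition of growth. At the TGI there is no net growth.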

Tests used:
Assay in all cases: DTP human tumour cell line panel, 48 h
UO-31 renal = tested on: UO-31 renal
HL-60(TB) leukemia = tested on: HL-60(TB) leukemia
A549 NSCLC = tested on: A549 NSCLC
MDA-MB-231 breast = tested on: MDA-MB-231 breast

Compound	TGI (UO-31 renal)	TGI (HL-60(TB) leukemia)	TGI (A549 NSCLC)	TGI (MDA-MB-231 breast)	GI50 (A549 NSCLC)	GI50 (MDA-MB-231 breast)
c1ccc2c(OCC3CO3)ccc(OCC3CO3)c2c1 (centres undefined)	3.15 µM	2.4 µM	16.9 µM	22.3 µM		
OC1OC(c2ccc[nH]2)C(F)(F)C(F)(F)C1(F)F (centres undefined)	> 100 µM	> 100 µM	> 100 µM	> 100 µM		
[N-]=[N+]=Nc1cc(=O)n(-c2ccccc2)c(=O)n1-c1ccccc1	> 100 µM		> 100 µM	> 100 µM		
CC1=C/C(=N\N(C)C)C(C(O)(C(F)(F)F)C(F)(F)F)C(C)(C)C1 (centres undefined)	> 100 µM	> 100 µM	> 100 µM	> 100 µM		
CO[C@H]1C[C@@H]2CC[C@@H](C)[C@@](O)(O2)C(=O)C(=O)N2CCCC[C@H]2C(=O)O[C@H]([C@H](C)C[C@@H]2CC[C@@H](OC(=O)C(C)(CO)CO)[C@H](OC)C2)CC(=O)[C@H](C)/C=C(\C)[C@@H](O)[C@@H](OC)C(=O)[C@H](C)C[C@H](C)/C=C/C=C/C=C/1C	> 100 µM	6.31 µM	> 100 µM	31.2 µM	0.95 µM	2.62 µM
O=C(O)c1ccccc1C(=O)OCC1CCCN2CCCCC12 (centres undefined)	> 100 µM		> 100 µM	> 100 µM		
CC(C)[Si](OCC/C=C/C1CCC(=O)C1C(O)C1CCCCC1)(C(C)C)C(C)C (centres undefined)	30.2 µM		28.7 µM	36.3 µM		
COCC1OCCN1C (centres undefined)	> 100 µM		> 100 µM	> 100 µM		
CC1(C)C[C@H]2C3=CC[C@@H]4[C@@]5(C)CC[C@H](O)C(C)(C)[C@@H]5CC[C@@]4(C)[C@]3(C)C[C@@H](O)[C@@]23C[C@@H]1OC3=O	> 100 µM	> 100 µM	> 100 µM	> 100 µM		
CCN(CC)CCN1CCN=c2c3cc(OC)ccc3n3cnc4ccc1c2c43	4.42 µM	1.2 µM	2.78 µM	2.33 µM		
CC1=C(C(=O)OC23CC4CC(CC(C4)C2)C3)C(c2ccccc2OC(F)F)C(C(=O)OC23CC4CC(CC(C4)C2)C3)=C(C)N1 (centres undefined)	> 100 µM	> 100 µM	> 100 µM	> 100 µM		
COc1ccc2c(c1)-c1c(c3ccccc3n1CCN1CCCCC1)CC2	30 µM	20.4 µM	> 88.9 µM	31.1 µM		
COc1ccccc1NC(=S)Nc1cccc(C)n1	> 100 µM	> 100 µM	> 100 µM			
c1ccc2c(c1)n1c(N3CCOCC3)[n+]3ccccc3c1c1c3cccc[n+]3c(N3CCOCC3)n21		> 100 µM	> 100 µM	> 100 µM		
CCCOc1ccc(/C=C/C2=[N+](CCO)CCO2)cc1	> 100 µM	> 100 µM	> 100 µM	> 100 µM		
NC(=O)CC1(O)C=CC(=O)C=C1	> 100 µM	> 100 µM	> 100 µM	> 100 µM		
COC(=O)c1cccc(C)c1C1CN=NC12Cc1c(ccc(C)c1C)C2=O (centres undefined)	> 100 µM	37.1 µM	> 100 µM	> 100 µM		
